Measured values taken from patent US20090304692A1, “TRIAZINE COMPOUNDS AS PI3 KINASE AND MTOR INHIBITORS” (Wyeth, priority 2008, published 2009).
Like-named read-outs stand apart in the source and are kept apart here.

Key:
Human mTOR (FLAG-TOR) = Human mTOR (FLAG-TOR) (Homo sapiens, UniProt P42345); experiment: mTOR kinase assay (DELFIA format, purified enzyme); type: biochemical; conditions: read-out: IC50 mTOR
[1] = system: human breast MDA-MB-361 tumor cell line; experiment: In vitro cell culture growth assay (MTS), MDA-MB-361; type: cell-based; conditions: Homo sapiens, MDA-MB-361, 72 h; MTS cell growth assay, three days after drug treatment; read-out: IC50 MDA-MB-361
[2] = system: human prostate PC3-mm2 tumor cell line; experiment: In vitro cell culture growth assay (MTS), PC3-mm2; type: cell-based; conditions: Homo sapiens, PC3MM2, 72 h, MTS cell growth assay, three days after drug treatment; read-out: IC50 PC3-mm2
PI3K-α = PI3K-α (Homo sapiens, UniProt P42336); experiment: PI3K-alpha fluorescence polarization assay; conditions: read-out: IC50 PI3Kα
PI3K-γ = PI3K-γ (Homo sapiens, UniProt P48736); experiment: PI3K-gamma fluorescence polarization assay; conditions: read-out: IC50 PI3Kγ
human SMG-1 (hSMG-1) = human SMG-1 (hSMG-1) (Homo sapiens, UniProt Q96Q15); experiment: hSMG-1 kinase assay (DELFIA); type: biochemical
[3] = system: human prostate LNCap tumor cell line; experiment: In vitro cell culture growth assay (MTS), LNCap; conditions: Homo sapiens, LNCaP, 72 h, read-out: IC50 LNCap
[4] = system: human tumor xenograft models; conditions: cited from earlier work

Chain of human SMG-1 (hSMG-1) (Q96Q15 whole entry): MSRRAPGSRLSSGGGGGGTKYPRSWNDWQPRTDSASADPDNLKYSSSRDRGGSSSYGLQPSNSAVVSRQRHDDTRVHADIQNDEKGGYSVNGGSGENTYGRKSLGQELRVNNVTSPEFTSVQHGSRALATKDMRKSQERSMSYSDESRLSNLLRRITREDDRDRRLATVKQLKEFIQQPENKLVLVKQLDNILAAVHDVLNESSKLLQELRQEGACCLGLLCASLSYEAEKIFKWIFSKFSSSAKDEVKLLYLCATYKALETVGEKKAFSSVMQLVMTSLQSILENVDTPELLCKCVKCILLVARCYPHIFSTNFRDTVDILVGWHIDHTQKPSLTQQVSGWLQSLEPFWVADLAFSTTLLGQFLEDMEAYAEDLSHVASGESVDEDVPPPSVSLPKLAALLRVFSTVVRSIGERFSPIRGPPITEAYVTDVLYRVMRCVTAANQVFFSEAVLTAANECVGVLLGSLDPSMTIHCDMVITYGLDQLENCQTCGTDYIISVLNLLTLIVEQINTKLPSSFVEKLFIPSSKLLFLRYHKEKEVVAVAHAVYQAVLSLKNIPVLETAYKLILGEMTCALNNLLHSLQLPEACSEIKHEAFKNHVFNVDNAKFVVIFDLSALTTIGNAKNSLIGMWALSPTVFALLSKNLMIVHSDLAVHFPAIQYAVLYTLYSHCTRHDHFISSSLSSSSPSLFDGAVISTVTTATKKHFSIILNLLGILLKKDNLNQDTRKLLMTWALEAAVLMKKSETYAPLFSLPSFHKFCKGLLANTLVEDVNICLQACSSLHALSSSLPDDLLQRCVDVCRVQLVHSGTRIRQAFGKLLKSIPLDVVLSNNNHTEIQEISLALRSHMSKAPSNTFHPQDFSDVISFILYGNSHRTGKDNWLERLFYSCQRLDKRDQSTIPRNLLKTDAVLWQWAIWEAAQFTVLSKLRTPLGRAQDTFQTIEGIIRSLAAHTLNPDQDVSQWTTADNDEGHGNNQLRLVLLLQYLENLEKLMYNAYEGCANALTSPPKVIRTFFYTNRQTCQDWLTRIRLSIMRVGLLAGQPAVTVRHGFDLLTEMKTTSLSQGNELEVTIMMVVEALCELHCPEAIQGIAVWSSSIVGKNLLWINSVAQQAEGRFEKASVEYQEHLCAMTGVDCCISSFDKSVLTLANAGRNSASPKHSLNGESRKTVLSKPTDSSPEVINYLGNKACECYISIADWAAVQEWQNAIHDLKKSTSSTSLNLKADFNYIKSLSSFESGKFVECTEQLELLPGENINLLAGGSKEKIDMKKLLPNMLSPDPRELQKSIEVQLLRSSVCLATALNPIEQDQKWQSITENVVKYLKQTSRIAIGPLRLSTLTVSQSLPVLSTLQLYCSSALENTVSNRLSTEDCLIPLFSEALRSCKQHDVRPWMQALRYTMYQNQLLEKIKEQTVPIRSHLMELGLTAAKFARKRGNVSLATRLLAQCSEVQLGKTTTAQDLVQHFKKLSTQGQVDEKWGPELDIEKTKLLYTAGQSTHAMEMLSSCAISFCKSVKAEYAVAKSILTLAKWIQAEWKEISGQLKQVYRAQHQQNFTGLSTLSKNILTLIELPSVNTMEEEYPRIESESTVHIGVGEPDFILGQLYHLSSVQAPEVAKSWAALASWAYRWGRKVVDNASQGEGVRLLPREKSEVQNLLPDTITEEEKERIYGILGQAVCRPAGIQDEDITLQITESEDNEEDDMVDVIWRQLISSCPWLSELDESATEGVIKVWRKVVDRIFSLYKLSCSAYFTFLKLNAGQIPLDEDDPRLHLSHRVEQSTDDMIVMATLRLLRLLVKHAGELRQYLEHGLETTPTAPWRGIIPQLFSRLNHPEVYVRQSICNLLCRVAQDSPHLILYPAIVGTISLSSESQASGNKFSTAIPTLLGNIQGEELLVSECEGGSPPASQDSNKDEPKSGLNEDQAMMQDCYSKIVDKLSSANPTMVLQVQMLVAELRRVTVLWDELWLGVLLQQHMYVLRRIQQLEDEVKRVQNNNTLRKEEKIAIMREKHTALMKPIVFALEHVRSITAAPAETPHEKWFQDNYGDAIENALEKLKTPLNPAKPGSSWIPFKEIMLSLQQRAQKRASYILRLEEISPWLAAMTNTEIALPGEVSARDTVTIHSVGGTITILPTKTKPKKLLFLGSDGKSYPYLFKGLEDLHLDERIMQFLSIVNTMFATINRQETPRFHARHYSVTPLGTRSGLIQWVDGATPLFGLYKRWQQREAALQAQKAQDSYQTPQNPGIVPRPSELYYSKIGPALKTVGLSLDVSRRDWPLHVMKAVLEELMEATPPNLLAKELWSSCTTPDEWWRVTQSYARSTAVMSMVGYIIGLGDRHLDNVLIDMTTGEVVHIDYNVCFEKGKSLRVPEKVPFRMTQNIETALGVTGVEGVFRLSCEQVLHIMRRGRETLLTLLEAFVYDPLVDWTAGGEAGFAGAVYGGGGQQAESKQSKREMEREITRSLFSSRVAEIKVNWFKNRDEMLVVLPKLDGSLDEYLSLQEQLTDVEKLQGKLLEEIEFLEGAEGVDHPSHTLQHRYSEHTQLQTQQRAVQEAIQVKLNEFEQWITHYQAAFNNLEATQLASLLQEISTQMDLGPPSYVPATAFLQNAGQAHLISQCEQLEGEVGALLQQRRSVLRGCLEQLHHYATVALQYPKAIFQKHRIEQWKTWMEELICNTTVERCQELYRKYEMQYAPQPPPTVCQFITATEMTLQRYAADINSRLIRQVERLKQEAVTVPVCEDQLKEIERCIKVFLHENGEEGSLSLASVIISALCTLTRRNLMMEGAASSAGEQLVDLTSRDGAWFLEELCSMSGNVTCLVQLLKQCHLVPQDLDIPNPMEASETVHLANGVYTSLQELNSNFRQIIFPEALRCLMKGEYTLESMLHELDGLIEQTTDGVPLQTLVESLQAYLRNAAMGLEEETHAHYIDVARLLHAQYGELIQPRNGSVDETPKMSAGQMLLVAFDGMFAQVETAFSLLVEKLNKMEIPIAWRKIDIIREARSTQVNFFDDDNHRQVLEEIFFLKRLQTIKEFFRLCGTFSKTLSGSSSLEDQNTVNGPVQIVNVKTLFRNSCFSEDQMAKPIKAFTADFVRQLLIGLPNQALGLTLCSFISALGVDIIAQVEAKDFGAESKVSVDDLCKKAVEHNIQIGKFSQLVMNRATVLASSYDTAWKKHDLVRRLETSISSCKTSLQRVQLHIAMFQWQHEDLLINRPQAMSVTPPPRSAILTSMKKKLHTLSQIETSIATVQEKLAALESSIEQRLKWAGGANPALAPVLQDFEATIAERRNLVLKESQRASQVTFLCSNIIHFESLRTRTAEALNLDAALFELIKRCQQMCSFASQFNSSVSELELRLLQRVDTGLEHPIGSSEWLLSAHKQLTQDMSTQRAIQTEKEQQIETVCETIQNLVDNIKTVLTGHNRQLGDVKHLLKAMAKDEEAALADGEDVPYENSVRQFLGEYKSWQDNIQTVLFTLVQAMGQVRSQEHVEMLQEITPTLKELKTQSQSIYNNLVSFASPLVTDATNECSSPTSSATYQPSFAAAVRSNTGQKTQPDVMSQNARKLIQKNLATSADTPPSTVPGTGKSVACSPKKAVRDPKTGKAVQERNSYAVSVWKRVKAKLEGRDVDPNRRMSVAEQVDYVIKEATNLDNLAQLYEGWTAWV
Chain of PI3K-γ (P48736 whole entry, species assumed): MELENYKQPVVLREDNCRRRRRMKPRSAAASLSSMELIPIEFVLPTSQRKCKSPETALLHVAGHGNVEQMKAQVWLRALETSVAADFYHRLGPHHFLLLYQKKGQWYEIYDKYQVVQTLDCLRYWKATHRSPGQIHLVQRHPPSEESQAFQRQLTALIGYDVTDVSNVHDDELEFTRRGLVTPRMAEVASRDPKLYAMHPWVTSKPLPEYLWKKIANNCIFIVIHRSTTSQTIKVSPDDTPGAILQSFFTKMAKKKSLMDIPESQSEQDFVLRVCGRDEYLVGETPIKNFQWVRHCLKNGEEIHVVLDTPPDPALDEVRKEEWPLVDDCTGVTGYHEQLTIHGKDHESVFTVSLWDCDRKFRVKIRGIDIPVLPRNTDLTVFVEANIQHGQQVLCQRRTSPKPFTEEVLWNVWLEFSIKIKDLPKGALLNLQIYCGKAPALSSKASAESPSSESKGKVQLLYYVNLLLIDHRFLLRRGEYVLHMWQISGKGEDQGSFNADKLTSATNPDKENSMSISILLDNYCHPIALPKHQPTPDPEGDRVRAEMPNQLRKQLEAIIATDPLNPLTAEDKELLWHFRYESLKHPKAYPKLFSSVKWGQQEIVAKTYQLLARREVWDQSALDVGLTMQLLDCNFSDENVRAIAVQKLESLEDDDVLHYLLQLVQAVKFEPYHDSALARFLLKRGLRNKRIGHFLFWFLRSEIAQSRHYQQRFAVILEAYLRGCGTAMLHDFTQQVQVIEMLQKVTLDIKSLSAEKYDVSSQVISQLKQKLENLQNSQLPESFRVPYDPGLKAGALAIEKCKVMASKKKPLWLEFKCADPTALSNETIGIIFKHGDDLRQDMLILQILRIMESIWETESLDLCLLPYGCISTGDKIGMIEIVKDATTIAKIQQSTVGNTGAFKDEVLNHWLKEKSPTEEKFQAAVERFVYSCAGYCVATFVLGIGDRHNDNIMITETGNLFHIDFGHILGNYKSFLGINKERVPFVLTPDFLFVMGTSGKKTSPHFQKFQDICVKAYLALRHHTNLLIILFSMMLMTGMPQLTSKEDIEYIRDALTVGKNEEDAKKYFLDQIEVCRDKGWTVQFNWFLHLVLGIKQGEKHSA

| IC50 (Human mTOR (FLAG-TOR)) [nM] | melting point [°C] | IC50 (PI3K-α) [nM] | IC50 (PI3K-γ) [nM] | IC50 (human SMG-1 (hSMG-1)) [nM] | Compound | also measured |
| --- | --- | --- | --- | --- | --- | --- |
| 1.8 | 258 | 6 | 40 |  | O=C(Nc1ccncc1)Nc1ccc(-c2nc(N3CCOCC3)nc(N3CC4CCC(C3)O4)n2)cc1 [Example 48, 1-{4-[4-morpholin-4-yl-6-(8-oxa-3-azabicyclo[3.2.1]oct-3-yl)-1,3,5-triazin-2-yl]phenyl}-3-pyridin-4-ylurea] | IC50 [1]: 38 nM; IC50 [2]: 48 nM |
| 1.05 | 238 | 3 | 30 |  | O=C(Nc1ccncc1)Nc1ccc(-c2nc(OC3CCOCC3)nc(N3CCOCC3)n2)cc1 [Example 59, 1-{4-[4-morpholin-4-yl-6-(tetrahydro-2H-pyran-4-yloxy)-1,3,5-triazin-2-yl]phenyl}-3-pyridin-4-ylurea] | IC50 [1]: 14 nM; IC50 [2]: 16 nM |
| 27 | 212 | 27 | 100 |  | O=C(Nc1ccncc1)Nc1ccc(-c2nc(N3CCC3)nc(N3CCOCC3)n2)cc1 [Example 140, 1-[4-(4-azetidin-1-yl-6-morpholin-4-yl-1,3,5-triazin-2-yl)phenyl]-3-pyridin-4-ylurea] | IC50 [1]: 225 nM; IC50 [2]: 279 nM |
| 26 | 212 | 241 | 3380 |  | COC(=O)c1ccc(NC(=O)Nc2ccc(-c3nc(N4CCC4)nc(N4CCOCC4)n3)cc2)cc1 [Example 141, methyl 4-({[4-(4-azetidin-1-yl-6-morpholin-4-yl-1,3,5-triazin-2-yl)phenyl]carbamoyl}amino)benzoate] |  |
| 21 | 204 | 115 | 498 |  | O=C(Nc1ccc(C(=O)O)cc1)Nc1ccc(-c2nc(N3CCC3)nc(N3CCOCC3)n2)cc1 [Example 195, 4-({[4-(4-azetidin-1-yl-6-morpholin-4-yl-1,3,5-triazin-2-yl)phenyl]carbamoyl}amino) benzoic acid] |  |
| 13 | 170 | 6 | 55 |  | CN1CCN(C(=O)c2ccc(NC(=O)Nc3ccc(-c4nc(N5CCC5)nc(N5CCOCC5)n4)cc3)cc2)CC1 [Example 196, 1-[4-(4-azetidin-1-yl-6-morpholin-4-yl-1,3,5-triazin-2-yl)phenyl]-3-{4-[(4-methylpiperazin-1-yl)carbonyl]phenyl}urea] | IC50 [1]: 50 nM; IC50 [2]: 82 nM |
| 32 | 192 | 68 | 182 |  | CC(C)(C)OC(=O)N1C[C@H]2C[C@@H]1CN2c1nc(-c2ccc(NC(=O)Nc3ccncc3)cc2)nc(N2CCOCC2)n1 [Example 256, tert-butyl(1R,4R)-5-(4-morpholin-4-yl-6-{4-[(pyridin-4-ylcarbamoyl)amino]phenyl}-1,3,5-triazin-2-yl)-2,5-diazabicyclo[2.2.1]heptane-2-carboxylate] |  |
| 85 | 202 | 90 | 323 |  | CC(=O)c1ccc(NC(=O)Nc2ccc(-c3nc(N4CCOCC4)nc(N4C[C@H]5C[C@@H]4CN5C(=O)OC(C)(C)C)n3)cc2)cc1 [Example 257, tert-butyl (1R,4R)-5-[4-(4-{[(4-acetylphenyl)carbamoyl]amino}phenyl)-6-morpholin-4-yl-1,3,5-triazin-2-yl]-2,5-diazabicyclo[2.2.1]heptane-2-carboxylate] |  |
| 1 | 296 to 298 | 3 | 20 |  | O=C(Nc1ccc(C(=O)NCc2ccccn2)cc1)Nc1ccc(-c2nc(N3CCOCC3)nc(N3CCOCC3)n2)cc1 [Example 263, 4-({[4-(4,6-dimorpholin-4-yl-1,3,5-triazin-2-yl)phenyl]carbamoyl}amino)-N-(pyridin-2-ylmethyl)benzamide] | IC50 [1]: 68 nM; IC50 [2]: 31 nM |
| 5.3 | 218 | 39 | 106 |  | COC(=O)c1ccc(NC(=O)Nc2ccc(-c3nc(C(C)C)nc(N4CCOCC4)n3)cc2)cc1 [Example 300, methyl 4-[({4-[4-(1-methylethyl)-6-morpholin-4-yl-1,3,5-triazin-2-yl]phenyl}carbamoyl)amino]benzoate] | IC50 [1]: 297 nM; IC50 [2]: 340 nM |
| 17 |  |  |  | 510 | CNC(=O)Nc1ccc(-c2nc(-c3ccc(NC(=O)Nc4cccnc4)cc3)nc(N3C(C)COCC3C)n2)cc1 (stereo not drawn) [Example 463, 1-{4-[4-(3,5-dimethylmorpholin-4-yl)-6-{4-[(methylcarbamoyl)amino]phenyl}-1,3,5-triazin-2-yl]phenyl}-3-pyridin-3-ylurea] |  |
| 1 |  |  |  | 3 | CNC(=O)Nc1ccc(-c2nc(-c3ccc(NC(=O)Nc4ccc(C(N)=O)cc4)cc3)nc(N3CC4CCC(C3)O4)n2)cc1 [Example 464, 4-[({4-[4-{4-[(methylcarbamoyl)amino]phenyl}-6-(8-oxa-3-azabicyclo[3.2.1]oct-3-yl)-1,3,5-triazin-2-yl]phenyl}carbamoyl)amino]benzamide] |  |
| 1 |  |  |  | 5 | CNC(=O)Nc1ccc(-c2nc(-c3ccc(NC(=O)Nc4cccc(C(N)=O)c4)cc3)nc(N3CC4CCC(C3)O4)n2)cc1 [Example 465, 3-[({4-[4-{4-[(methylcarbamoyl)amino]phenyl}-6-(8-oxa-3-azabicyclo[3.2.1]oct-3-yl)-1,3,5-triazin-2-yl]phenyl}carbamoyl)amino]benzamide] |  |
| 23 |  |  |  | 130 | CNC(=O)Nc1ccc(-c2nc(-c3ccc(NC(=O)Nc4cccc(C(N)=O)c4)cc3)nc(N3C(C)COCC3C)n2)cc1 (stereo not drawn) [Example 469, 3-[({4-[4-(3,5-dimethylmorpholin-4-yl)-6-{4-[(methylcarbamoyl)amino]phenyl}-1,3,5-triazin-2-yl]phenyl}carbamoyl)amino]benzamide] | IC50 [3]: 2800 nM |
| 7 |  |  |  | 195 | CNC(=O)Nc1ccc(-c2nc(-c3ccc(NC(=O)Nc4ccc(C(N)=O)cc4)cc3)nc(N3C(C)COCC3C)n2)cc1 (stereo not drawn) [Example 470, 4-[({4-[4-(3,5-dimethylmorpholin-4-yl)-6-{4-[(methylcarbamoyl)amino]phenyl}-1,3,5-triazin-2-yl]phenyl}carbamoyl)amino]benzamide] | IC50 [3]: 1000 nM |
|  |  |  |  | 5 | CNC(=O)Nc1ccc(-c2nc(-c3ccc(NC(=O)Nc4ccncc4)cc3)nc(N3CC4CCC(C3)O4)n2)cc1 [Example 471, 1-methyl-3-{4-[4-(8-oxa-3-azabicyclo[3.2.1]oct-3-yl)-6-{4-[(pyridin-4-ylcarbamoyl)amino]phenyl}-1,3,5-triazin-2-yl]phenyl}urea] | IC50 [3]: 130 nM |
| 35 |  |  |  | 200 | CNC(=O)Nc1ccc(-c2nc(-c3ccc(NC(=O)Nc4ccncc4)cc3)nc(N3C(C)COCC3C)n2)cc1 (stereo not drawn) [Example 472, 1-{4-[4-(3,5-dimethylmorpholin-4-yl)-6-{4-[(methylcarbamoyl)amino]phenyl}-1,3,5-triazin-2-yl]phenyl}-3-pyridin-4-ylurea] | IC50 [3]: 3800 nM |
| 35 |  |  |  | 3650 | O=C(Nc1ccc(-c2nc(N3CCOCC3)nc(N3CCOCC3)n2)cc1)C(F)F [Example 473, N-[4-(4,6-dimorpholin-4-yl-1,3,5-triazin-2-yl)phenyl]-2,2-difluoroacetamide] |  |
| 48 |  |  |  | 5650 | c1cc(-c2nc(N3CCOCC3)nc(N3CCOCC3)n2)ccc1NC1=NCCN1 [Example 474, N-[4-(4,6-dimorpholin-4-yl-1,3,5-triazin-2-yl)phenyl]-4,5-dihydro-1H-imidazol-2-amine] |  |
| 18500 |  |  |  | > 20000 | c1cc(-c2nc(N3CCOCC3)nc(N3CCOCC3)n2)ccc1-c1nn[nH]n1 [Example 475, 2,4-dimorpholin-4-yl-6-[4-(2H-tetrazol-5-yl)phenyl]-1,3,5-triazine] |  |
| 5 |  |  |  | 19 | CNC(=O)Nc1ccc(-c2nc(N3CCOCC3)nc(N3CCOCC3)n2)cc1 [Example 476, 1-[4-(4,6-dimorpholin-4-yl-1,3,5-triazin-2-yl)phenyl]-3-methylurea] |  |
| 14000 |  |  |  | 9250 | O=C(Cc1ccc(-c2nc(N3CCOCC3)nc(N3CCOCC3)n2)cc1)Nc1cccnc1 [Example 477, 2-[4-(4,6-dimorpholin-4-yl-1,3,5-triazin-2-yl)phenyl]-N-pyridin-3-ylacetamide] |  |
|  |  |  |  |  | Cn1c(=O)n(-c2ccc(C(C)(C)C#N)cc2)c2c3cc(-c4cnc5ccccc5c4)ccc3ncc21 [NVP-BEZ-235, 2-methyl-2-(4-(3-methyl-2-oxo-8-(quinolin-3-yl)-2,3-dihydro-1H-imidazo[4,5-c]quinolin-1-yl)phenyl)propanenitrile] | activity against human tumor models ([4]; prostrate (PC-3) and glioblastoma (U-87) xenografts): demonstrated activity |
|  |  |  |  |  | Oc1cccc(-c2nc(N3CCOCC3)c3oc4ncccc4c3n2)c1 [PI103, 3-(4-(4-morpholinyl)pyrido[3′,2′:4,5]furo[3,2-d]pyrimidin-2-yl)phenol] | activity against human tumor models ([4]; I.P. dosing in mice, U87MG, PC3, MDA-MB-468, MDA-MB-435, HCT 116, SKOV3, IGROV-1 xenografts): demonstrated activity |
